Test results as given in paper PMC5642477, “Phosphodiesterase 10A is overexpressed in lung tumor cells and inhibitors selectively suppress growth by blocking β-catenin and MAPK signaling” (Oncotarget, 2017).

Assays:
[1] = tested on: intracellular cGMP levels in H1299 cells; experiment: cGMP biosensor assay (luciferase); format: cell-based, human; conditions: H1299, CNP 100 nmol/L; sildenafil 1 µmol/L, IBMX 100 µmol/L
Experimental: Stable cell lines with an expression of luciferase-based cGMP biosensor were established from H1299 NSCLC cells and HEK293 cells using a genetically encoded GAF-Luc construct (Promega), containing a cGMP-specific binding domain from human PDE5A GAF-A domain fused to modified firefly luciferase (35). Cells were pre-incubated at room temperature in CO2 independent media supplemented with 10% FBS and 5 mmol/L luciferin. For the measurement of intracellular cGMP levels, sodium nitroprusside (SNP) or C-type natriuretic peptide (CNP) in combination with PDE inhibitors were added to initiate the experiment and the increased luminescence values in live cells were detected constantly over a period time of 2 hours.

[2] = tested on: cleaved PARP and caspase 3 in H1299 cells; experiment: Western blotting, cleaved PARP and caspase 3 (apoptosis); format: cell-based, human; conditions: H1299, 24 hours of treatment
Experimental: (§1) Whole cell extraction was performed according to a previously described method using cell lysing buffer (Cell Signaling) supplemented with 10 mmol/L NaF for protein phosphorylation studies. Cell lysates were separated by 4-12% gradient, 7% or 10% pre-casting PAGE (Novex/Invitrogen) followed by electrophoretic transfer to a nitrocellulose membrane. Western blotting procedures were performed using Chemiluminescence Reagent (Pierce) and visualized using Chemi Doc Imaging System (BioRad).

β-catenin in H1299 cells = experiment: Western blotting, β-catenin phosphorylation; format: cell-based, human; conditions: H1299, PQ10 2 µmol/L, 1 hour; KT5823 0.1 µmol/L, H89 1 µmol/L
Experimental: as §1

H1299 cells = experiment: Growth assay (Cell Titer Glo); format: cell-based, human; conditions: not shown
Experimental: (§2) Cells were plated in half area 96-well microtiter plates (Corning) at a density of 3, 000 cells per well. For drug treatment, cells were treated with compound or DMSO as vehicle (final concentration at 0.2%). For siRNA assays, cells were transfected with siRNAs under the same condition as described above. The effect of treatment on cell growth was measured using the Cell Titer Glo (CTG) assay (Promega) as specified by the measurement of viable cells based on ATP content after 72 hours standard culture. All growth assay involving NSCLCs and NHAECs were performed in the presence of 5% serum.
(§3) Drug effects on cell growth and IC50 values were determined as described previously. All experiments were repeated a minimum of three times to determine the reproducibility of the results. All error bars represent standard error of the mean (SEM). Statistical analysis was performed using Student’s t test or other as indicated. A P value of <0.05 was considered statistically significant.

H460 cells = experiment: Growth assay (Cell Titer Glo); format: cell-based; conditions: Homo sapiens, NCI-H460; H460, 72 hours, 5% serum; read-out: Growth inhibition IC50
Experimental: as §2, §3

A549 cells = experiment: Growth assay (Cell Titer Glo); format: cell-based; conditions: Homo sapiens; A549, 72 hours, 5% serum; read-out: Growth inhibition IC50
Experimental: as §2, §3

With `CC(C)Cn1c(=O)n(C)c(=O)c2[nH]cnc21` [IBMX] the “effect on luminescence values in biosensor assay” value [1] was “increased luminescence levels”.
With `O=S(=O)(NCCNC/C=C/c1ccc(Br)cc1)c1cccc2cnccc12` [H89] the “effect on PQ10-induced activation of PARP and caspase 3” value [2] was “ineffective” and the “effect on PQ10-induced phosphorylation of β-catenin at pSer552” value (β-catenin in H1299 cells) was “partial inhibition”.
For `CCCc1nn(C)c2c(=O)[nH]c(-c3cc(S(=O)(=O)N4CCN(C)CC4)ccc3OCC)nc12` [Sildenafil, sildenafil], the “effect on growth of H1299 cells” value (H1299 cells) was “no effect” and the “effect on luminescence values in biosensor assay” value [1] was “did not affect luminescence values”.
`COc1ccc(Cc2nccc3cc(OC)c(OC)cc23)cc1OC` [Papaverine] showed an IC50 (H460 cells) of 16.3 µM and an IC50 (A549 cells) of 17.2 µM.
